Measurements: ChEMBL document CHEMBL4261482, “Development of small molecular compounds targeting cancer stem cells” (Medchemcomm, 2017)

How the values were obtained:
[1] = test system: Lu-99 cell line; assay: Cytotoxicity against human LU99 cells assessed as decrease in cell viability after 72 hrs by CCK8 assay; assay type: functional, cell-based; settings: Lu-99, 72 h
[2] = test system: Daudi; assay: Cytotoxicity against human Daudi cells assessed as decrease in cell viability after 72 hrs by CCK8 assay; assay type: functional, cell-based
[3] = test system: MKN-1; assay: Cytotoxicity against human MKN1 cells assessed as decrease in cell viability after 72 hrs by CCK8 assay; assay type: functional, cell-based; settings: MKN-1, 72 h
[4] = test system: HCT-116; assay: Cytotoxicity against human HCT116 cells assessed as decrease in cell viability after 72 hrs by CCK8 assay; assay type: functional, cell-based; settings: HCT-116, 72 h
[5] = test system: MIA PaCa-2; assay: Cytotoxicity against human MIAPaCa2 cells assessed as decrease in cell viability after 72 hrs by CCK8 assay; assay type: functional, cell-based; settings: MIA PaCa-2, 72 h
[6] = test system: UMUC3; assay: Cytotoxicity against human UM-UC-3 cells assessed as decrease in cell viability after 72 hrs by CCK8 assay; assay type: functional, cell-based; settings: UMUC3, 72 h
[7] = test system: MKN-45; assay: Cytotoxicity against human MKN45 cells assessed as decrease in cell viability after 72 hrs by CCK8 assay; assay type: functional, cell-based; settings: MKN-45, 72 h
[8] = test system: DU-4475; assay: Cytotoxicity against human DU4475 cells assessed as decrease in cell viability after 72 hrs by CCK8 assay; assay type: functional, cell-based; settings: DU-4475, 72 h
[9] = test system: A549; assay: Cytotoxicity against human A549 cells assessed as decrease in cell viability after 72 hrs by CCK8 assay; assay type: functional, cell-based; settings: A549, 72 h
[10] = test system: CWR22R; assay: Cytotoxicity against human 22Rv1 cells assessed as decrease in cell viability after 72 hrs by CCK8 assay; assay type: functional, cell-based; settings: 22Rv1, 72 h
[11] = test system: T47D; assay: Cytotoxicity against human T47D cells assessed as decrease in cell viability after 72 hrs by CCK8 assay; assay type: functional, cell-based
[12] = test system: HepG2; assay: Cytotoxicity against human HepG2 cells assessed as decrease in cell viability after 72 hrs by CCK8 assay; assay type: functional, cell-based; settings: HepG2, 72 h
[13] = test system: MDA-MB-231; assay: Cytotoxicity against human MDA-MB-231 cells assessed as decrease in cell viability after 72 hrs by CCK8 assay; assay type: functional, cell-based; settings: MDA-MB-231, 72 h
[14] = test system: Lu-99 cell line; assay: Antitumor activity against human LU99 cells xenografted in BALB/cSLC-nu/nu mouse assessed as tumor growth inhibition at 40 mg/kg, iv administered in liposomal formulation on day 1, 4, 8, 11, 15, 18 measured on day 22 relative to control; assay type: functional; settings: Lu-99, iv, read-out: TGI
[15] = test system: Lu-99 cell line; assay: Antitumor activity against human LU99 cells xenografted in BALB/cSLC-nu/nu mouse assessed as tumor growth inhibition at 100 mg/kg, po qd administered for 14 days measured on day 15 relative to control; assay type: functional; settings: Lu-99, po, read-out: TGI
[16] = test system: DU-4475; assay: Antiproliferative activity against human DU4475 cells; assay type: functional, cell-based
[17] = test system: T47D; assay: Antiproliferative activity against human T47D cells; assay type: functional, cell-based
[18] = test system: CWR22R; assay: Antiproliferative activity against human 22Rv1 cells; assay type: functional, cell-based
[19] = test system: A549; assay: Antiproliferative activity against human A549 cells; assay type: functional, cell-based
[20] = test system: A549; assay: Antitumor activity against human A549 cells xenografted in BALB/cSLC-nu/nu mouse assessed as tumor growth inhibition at 10 mg/kg, iv qd administered for 14 days measured on day 15 relative to control; assay type: functional; settings: read-out: TGI
[21] = test system: A549; assay: Antitumor activity against human A549 cells xenografted in BALB/cSLC-nu/nu mouse assessed as tumor growth inhibition at 10 mg/kg administered through oral gavage as qd for 14 days measured on day 15 relative to control; assay type: functional; settings: read-out: TGI
[22] = test system: MV4-11; assay: Cytotoxicity against human MV4-11 cells assessed as decrease in cell viability after 48 hrs by MTT assay; assay type: functional, cell-based; settings: MV4-11, 48 h
[23] = test system: THP-1; assay: Cytotoxicity against human THP1 cells assessed as decrease in cell viability after 48 hrs by MTT assay; assay type: functional, cell-based; settings: THP-1, 48 h
[24] = test system: KG-1; assay: Cytotoxicity against human KG1 cells assessed as decrease in cell viability after 48 hrs by MTT assay; assay type: functional, cell-based; settings: KG-1, 48 h
[25] = Cytotoxicity against human KOCL48 cells assessed as decrease in cell viability after 48 hrs by MTT assay; assay type: functional, cell-based
[26] = test system: MOLM-13; assay: Cytotoxicity against human MOLM13 cells assessed as decrease in cell viability after 48 hrs by MTT assay; assay type: functional, cell-based; settings: MOLM-13, 48 h
[27] = test system: KG-1a; assay: Cytotoxicity against human KG1a cells assessed as decrease in cell viability after 48 hrs by MTT assay; assay type: functional, cell-based
[28] = test system: K562; assay: Cytotoxicity against human K562 cells assessed as decrease in cell viability after 48 hrs by MTT assay; assay type: functional, cell-based; settings: K562, 48 h
[29] = test system: ML-2; assay: Cytotoxicity against human ML2 cells assessed as decrease in cell viability after 48 hrs by MTT assay; assay type: functional, cell-based; settings: ML-2, 48 h
[30] = test system: U-937; assay: Cytotoxicity against human U937 cells assessed as decrease in cell viability after 48 hrs by MTT assay; assay type: functional, cell-based; settings: U-937, 48 h
[31] = test system: BGC-823; assay: Antiproliferative activity against human BGC823 cells after 24 to 96 hrs by CCK8 assay; assay type: functional, cell-based
[32] = test system: SGC-7901; assay: Antiproliferative activity against human SGC7901 cells after 24 to 96 hrs by CCK8 assay; assay type: functional, cell-based
[33] = Antitumor activity against human gastric cancer cells xenografted in NOD/SCID mouse assessed as tumor growth inhibition at 15 mg/kg, iv administered once in every 2 days for 2 weeks measured on day 15 relative to control; assay type: functional; settings: read-out: TGI
[34] = test system: NCI-H69; assay: Cytotoxicity against human H69 cells assessed as decrease in cell viability after 72 hrs by MTT assay; assay type: functional, cell-based; settings: NCI-H69, 72 h
[35] = test system: NCI-H82; assay: Cytotoxicity against human H82 cells assessed as decrease in cell viability after 72 hrs by MTT assay; assay type: functional, cell-based; settings: NCI-H82, 72 h
[36] = test system: NCI-H524; assay: Cytotoxicity against human NCI-H524 cells assessed as decrease in cell viability after 72 hrs by MTT assay; assay type: functional, cell-based; settings: NCI-H524, 72 h
[37] = test system: DMS-114; assay: Cytotoxicity against human DMS114 cells assessed as decrease in cell viability after 72 hrs by MTT assay; assay type: functional, cell-based; settings: DMS-114, 72 h
[38] = test system: SBC-5; assay: Cytotoxicity against human SBC5 cells assessed as decrease in cell viability after 72 hrs by MTT assay; assay type: functional, cell-based; settings: SBC-5, 72 h
[39] = test system: SBC-3; assay: Cytotoxicity against human SBC3 cells assessed as decrease in cell viability after 72 hrs by MTT assay; assay type: functional, cell-based; settings: SBC-3, 72 h
[40] = Cytotoxicity against human H69AR cells assessed as decrease in cell viability after 72 hrs by MTT assay; assay type: functional, cell-based
[41] = test system: NCI-H2171; assay: Cytotoxicity against human NCI-H2171 cells assessed as decrease in cell viability after 72 hrs by MTT assay; assay type: functional, cell-based; settings: NCI-H2171, 72 h
[42] = test system: NCI-H446; assay: Cytotoxicity against human NCI-H446 cells assessed as decrease in cell viability after 72 hrs by MTT assay; assay type: functional, cell-based; settings: NCI-H446, 72 h
[43] = test system: NCI-H146; assay: Cytotoxicity against human NCI-H146 cells assessed as decrease in cell viability after 72 hrs by MTT assay; assay type: functional, cell-based; settings: NCI-H146, 72 h
[44] = test system: DMS-273; assay: Cytotoxicity against human DMS273 cells assessed as decrease in cell viability after 72 hrs by MTT assay; assay type: functional, cell-based; settings: DMS-273, 72 h
[45] = test system: CAKI-1; assay: Cytotoxicity against human Caki1 cells assessed as decrease in cell viability after 72 hrs by MTT assay; assay type: functional, cell-based; settings: CAKI-1, 72 h
[46] = test system: 769-P; assay: Cytotoxicity against human 769-P cells assessed as decrease in cell viability after 72 hrs by MTT assay; assay type: functional, cell-based
[47] = test system: 786-0; assay: Cytotoxicity against human 786-O cells assessed as decrease in cell viability after 72 hrs by MTT assay; assay type: functional, cell-based; settings: 786-0, 72 h
[48] = Cytotoxicity against human VMRC-RCW cells assessed as decrease in cell viability after 72 hrs by MTT assay; assay type: functional, cell-based
[49] = test system: CAKI-2; assay: Cytotoxicity against human Caki2 cells assessed as decrease in cell viability after 72 hrs by MTT assay; assay type: functional, cell-based; settings: CAKI-2, 72 h

Structure (SMILES): Cc1cc(O)c(-c2ccc([C@@H](C)CN(C)C)cc2)c2c1[nH]c(=O)c1sccc12
- IC50 [1]: 7.6 nM
- IC50 [2]: 25 nM
- IC50 [3]: 38 nM
- IC50 [4]: 33 nM
- IC50 [5]: 30 nM
- IC50 [6]: 32 nM
- IC50 [7]: 39 nM
- IC50 [8]: 53 nM
- IC50 [9]: 31 nM
- IC50 [10]: 50 nM
- IC50 [11]: 72 nM
- IC50 [12]: 19 nM
- IC50 [13]: 73 nM
- inhibition in vivo at 40 mg/kg [14]: 110%
- inhibition in vivo at 100 mg/kg [15]: 113%

Structure (SMILES): CC(=O)c1cnc2ccc(-c3cc(Cl)c(O)c(Cl)c3)nc2c1N[C@H]1CC[C@H](CN(C)C)CC1
- IC50 [16]: 2.3 nM
- IC50 [17]: 4.3 nM
- IC50 [18]: 6 nM
- IC50 [19]: 6.7 nM
- inhibition in vivo at 10 mg/kg [20]: 108%
- inhibition in vivo at 10 mg/kg [21]: 124%
- IC50 [22]: 7.9 nM
- IC50 [23]: 15.6 nM
- IC50 [24]: 16.9 nM
- IC50 [25]: 16.9 nM
- IC50 [26]: 17.5 nM
- IC50 [27]: 26.4 nM
- IC50 [28]: 33 nM
- IC50 [29]: 33.8 nM
- IC50 [30]: 69.8 nM
- IC50 [31]: 25 nM
- IC50 [32]: 25 nM
- inhibition in vivo at 15 mg/kg [33]: 106 to 112%
- IC50 [34]: 0.8 nM
- IC50 [35]: 1.7 nM
- IC50 [36]: 1.9 nM
- IC50 [37]: 2.1 nM
- IC50 [38]: 2.8 nM
- IC50 [39]: 4.3 nM
- IC50 [40]: 4.4 nM
- IC50 [41]: 4.7 nM
- IC50 [42]: 6.2 nM
- IC50 [43]: 7.9 nM
- IC50 [44]: 8.4 nM
- IC50 [45]: 12.4 nM
- IC50 [46]: 20.1 nM
- IC50 [47]: 23.9 nM
- IC50 [48]: 25.5 nM
- IC50 [49]: 38.7 nM
